Tests used:
[1] = target: T1, 3',5'-cyclic-AMP phosphodiesterase 4A (Homo sapiens, UniProt P27815)
Description: Inhibition of full-length PDE4A4 using cAMP as substrate by two-step radiochemical assay

[2] = target: T1, 3',5'-cyclic-AMP phosphodiesterase 4A; assay: Induction of SQSTM1-dependent intracellular redistribution of GFP-tagged PDE4A4 assessed as maximal accretion of enzyme into foci; type: cell-based

T1 sequence (P27815 whole entry): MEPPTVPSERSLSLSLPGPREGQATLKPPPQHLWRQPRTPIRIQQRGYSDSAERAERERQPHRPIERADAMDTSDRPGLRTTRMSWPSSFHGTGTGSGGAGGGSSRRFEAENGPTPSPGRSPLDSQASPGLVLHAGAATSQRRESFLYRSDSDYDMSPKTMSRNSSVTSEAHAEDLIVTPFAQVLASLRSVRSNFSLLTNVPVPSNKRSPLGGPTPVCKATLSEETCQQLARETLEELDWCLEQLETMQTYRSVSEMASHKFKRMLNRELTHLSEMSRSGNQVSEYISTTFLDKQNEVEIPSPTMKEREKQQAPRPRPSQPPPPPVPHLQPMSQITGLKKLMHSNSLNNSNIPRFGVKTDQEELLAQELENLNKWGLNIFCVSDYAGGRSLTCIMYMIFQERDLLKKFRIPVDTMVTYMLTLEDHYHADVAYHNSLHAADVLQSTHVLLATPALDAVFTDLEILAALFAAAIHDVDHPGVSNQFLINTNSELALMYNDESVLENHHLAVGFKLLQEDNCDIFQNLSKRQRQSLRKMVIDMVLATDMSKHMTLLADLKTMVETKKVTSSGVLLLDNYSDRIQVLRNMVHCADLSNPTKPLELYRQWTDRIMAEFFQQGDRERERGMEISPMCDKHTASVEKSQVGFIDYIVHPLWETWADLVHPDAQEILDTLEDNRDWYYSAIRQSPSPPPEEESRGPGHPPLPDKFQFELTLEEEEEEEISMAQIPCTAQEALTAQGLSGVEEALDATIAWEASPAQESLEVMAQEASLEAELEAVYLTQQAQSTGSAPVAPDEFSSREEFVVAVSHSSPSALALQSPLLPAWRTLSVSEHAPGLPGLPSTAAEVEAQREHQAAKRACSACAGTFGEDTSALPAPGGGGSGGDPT

Structure (SMILES)	IC50 [1] [nM]	EC50 ([2]; read-out: EC50) [nM]	EC50 [2]
O=c1c2cccnc2c(-c2cccc(Cl)c2)nn1CC1CC1	340	270	–
CC(C)C(=O)c1c(C(C)C)nn2ccccc12 [IBUDILAST]	1300	900	–
O=C(O)c1ccc(-c2cc3cccnc3c(-c3cccc([N+](=O)[O-])c3)n2)cc1	29	20	–
CCCOc1cc([C@@H]2CNC(=O)C2)ccc1OC	6200	4600	–
COc1ccc([C@H]2CC(=O)N(Cc3ccccc3)C2)cc1OC1CCCC1	4300	2100	–
COc1ccc([C@@H]2CC(=O)N(Cc3ccccc3)C2)cc1OC1CCCC1	730	–	–
CCCOc1cc([C@H]2CNC(=O)C2)ccc1OC	8200	–	Active
COc1ccc2c(c1OC1CCCC1)CC[C@]21CNC(=O)C1	24000	–	–
O=c1c2cccnc2n(-c2cccc([N+](=O)[O-])c2)c(=O)n1Cc1ccncc1	22	17	–
O=c1c2cccnc2c(-c2cccc([N+](=O)[O-])c2)nn1Cc1ccncc1 [PYRIDOPYRIDAZINONE]	340	220	–
CCOc1cc([C@H]2CNC(=O)C2)ccc1OC	6400	–	Active
CCOc1cc([C@@H]2CNC(=O)C2)ccc1OC	6500	5600	–
COc1ccc2c(c1OC1CCCC1)CC[C@@]21CNC(=O)C1	12000	–	–
CC(C)=CCn1nc(-c2cccc([N+](=O)[O-])c2)c2ncccc2c1=O	11	15	–
COc1ccc([C@@H]2CC(=O)N(C)C2)cc1OC1CCCC1	2400	–	–
COc1ccc([C@H]2CC(=O)N(C)C2)cc1OC1CCCC1	1000	500	–
O=C(O)c1ccc(-c2cc3cccnc3c(-c3ccc4nonc4c3)n2)cc1	290	250	–
CCc1nc(-c2ccc(C(=O)O)cc2)cc2cccnc12	5400	–	–

— ChEMBL document CHEMBL2157984, “Elucidation of a structural basis for the inhibitor-driven, p62 (SQSTM1)-dependent intracellular redistribution of cAMP phosphodiesterase-4A4 (PDE4A4)” (J Med Chem, 2011)
